#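 The compound was tested at five concentrations on cells cultured in 96-well plates, with a 48-hour exposure period. Abbreviation: GI50, concentration required for 50% inhibition of growth.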 Activity calls are given as the source filed them. No stated cut-off is given here; in the data, active = GI50 up to about 1.1 µM and inactive = higher.
# How the values were obtained:
# Assay in all cases: NCI anticancer screen, dose series, 48 h
# HOP-62 = tested on: HOP-62
# RPMI-8226 = tested on: RPMI-8226
# SW-620 = tested on: SW-620
# HCC 2998 = tested on: HCC 2998
# ACHN = tested on: ACHN
# IGROV-1 = tested on: IGROV-1
# NCI/ADR-RES = tested on: NCI/ADR-RES
# SK-OV-3 = tested on: SK-OV-3
# UACC-257 = tested on: UACC-257
# PC-3 = tested on: PC-3
# TK-10 = tested on: TK-10
# RXF 393 = tested on: RXF 393
# SK-MEL-5 = tested on: SK-MEL-5
# A549 = tested on: A549
# Hs-578T = tested on: Hs-578T
# HL-60 = tested on: HL-60
# SN12C = tested on: SN12C
# MCF7 = tested on: MCF7
# NCI-H522 = tested on: NCI-H522
# T47D = tested on: T47D
# BT-549 = tested on: BT-549
# DU-145 = tested on: DU-145
# HCT-15 = tested on: HCT-15
# NCI-H460 = tested on: NCI-H460
# U-251 = tested on: U-251
# SNB-19 = tested on: SNB-19
# SK-MEL-28 = tested on: SK-MEL-28
# OVCAR-3 = tested on: OVCAR-3
# SF-268 = tested on: SF-268
# SF-295 = tested on: SF-295
# LOX IMVI = tested on: LOX IMVI
# KM12 = tested on: KM12
# UACC-62 = tested on: UACC-62
# OVCAR-8 = tested on: OVCAR-8
# NCI-H226 = tested on: NCI-H226
# OVCAR-4 = tested on: OVCAR-4
# CAKI-1 = tested on: CAKI-1
# HCT-116 = tested on: HCT-116
# OVCAR-5 = tested on: OVCAR-5
# COLO 205 = tested on: COLO 205
# M14 = tested on: M14
# MDA-MB-231 = tested on: MDA-MB-231
# HT-29 = tested on: HT-29
# MDA-MB-435 = tested on: MDA-MB-435
# K562 = tested on: K562
# SK-MEL-2 = tested on: SK-MEL-2
# SNB-75 = tested on: SNB-75
# EKVX = tested on: EKVX
# SR = tested on: SR
# UO-31 = tested on: UO-31
# HOP-92 = tested on: HOP-92
# MOLT-4 = tested on: MOLT-4
# Malme-3M = tested on: Malme-3M
# MDA-N = tested on: MDA-N
# 786-0 = tested on: 786-0
# NCI-H23 = tested on: NCI-H23
# CCRF-CEM = tested on: CCRF-CEM
# SF-539 = tested on: SF-539
compound,measurement,setting,value
COc1ccc(/C=C2\C[C@H]3[C@@H]4CCC5=C/C(=N/O)CC[C@]5(C)[C@H]4CC[C@]3(C)\C2=N\O)cc1,GI50,HOP-62,34.4 µM (inactive)
same,GI50,RPMI-8226,5.12 µM (inactive)
same,GI50,SW-620,36.9 µM (inactive)
same,GI50,HCC 2998,15.8 µM (inactive)
same,GI50,ACHN,5.52 µM (inactive)
same,GI50,IGROV-1,37.3 µM (inactive)
same,GI50,NCI/ADR-RES,8.18 µM (inactive)
same,GI50,SK-OV-3,42.7 µM (inactive)
same,GI50,UACC-257,30.1 µM (inactive)
same,GI50,PC-3,8.17 µM (inactive)
same,GI50,TK-10,37.1 µM (inactive)
same,GI50,RXF 393,7.1 µM (inactive)
same,GI50,SK-MEL-5,11 µM (inactive)
same,GI50,A549,5.01 µM (inactive)
same,GI50,Hs-578T,28.5 µM (inactive)
same,GI50,HL-60,< 0.01 µM (active)
same,GI50,SN12C,14.1 µM (inactive)
same,GI50,MCF7,5.01 µM (inactive)
same,GI50,NCI-H522,14.9 µM (inactive)
same,GI50,T47D,7.98 µM (inactive)
same,GI50,BT-549,15.9 µM (inactive)
same,GI50,DU-145,13.4 µM (inactive)
same,GI50,HCT-15,10.6 µM
same,GI50,NCI-H460,6.59 µM (inactive)
same,GI50,U-251,25.3 µM (inactive)
same,GI50,SNB-19,20 µM (inactive)
same,GI50,SK-MEL-28,61.8 µM (inactive)
same,GI50,OVCAR-3,10.2 µM (inactive)
same,GI50,SF-268,16.9 µM (inactive)
same,GI50,SF-295,12.6 µM (inactive)
same,GI50,LOX IMVI,17.9 µM (inactive)
same,GI50,KM12,12.2 µM (inactive)
same,GI50,UACC-62,14.5 µM (inactive)
same,GI50,OVCAR-8,9.42 µM (inactive)
same,GI50,NCI-H226,19.1 µM (inactive)
same,GI50,OVCAR-4,25.7 µM (inactive)
same,GI50,CAKI-1,38.3 µM (inactive)
same,GI50,HCT-116,5.21 µM (inactive)
same,GI50,OVCAR-5,36.3 µM (inactive)
same,GI50,COLO 205,14.5 µM (inactive)
same,GI50,M14,12.4 µM (inactive)
same,GI50,MDA-MB-231,31.6 µM (inactive)
same,GI50,HT-29,6.85 µM (inactive)
same,GI50,MDA-MB-435,26.5 µM (inactive)
same,GI50,K562,6.47 µM (inactive)
same,GI50,SK-MEL-2,22.2 µM (inactive)
same,GI50,SNB-75,19.7 µM (inactive)
same,GI50,EKVX,12.5 µM (inactive)
same,GI50,SR,3.99 µM (inactive)
same,GI50,UO-31,4.53 µM (inactive)
same,GI50,HOP-92,17.3 µM (inactive)
same,GI50,MOLT-4,6.7 µM (inactive)
same,GI50,Malme-3M,34.1 µM (inactive)
same,GI50,MDA-N,15.6 µM (inactive)
same,GI50,786-0,13.1 µM (inactive)
same,GI50,NCI-H23,19.5 µM (inactive)
Fc1cccc(F)c1C1SCc2nc3cc(Cl)c(Cl)cc3n21 (stereo not drawn),GI50,HOP-62,> 100 µM (inactive)
same,GI50,RPMI-8226,> 100 µM (inactive)
same,GI50,SW-620,> 100 µM (inactive)
same,GI50,HCC 2998,> 100 µM (inactive)
same,GI50,ACHN,> 100 µM (inactive)
same,GI50,IGROV-1,> 100 µM (inactive)
same,GI50,NCI/ADR-RES,> 100 µM (inactive)
same,GI50,SK-OV-3,> 100 µM (inactive)
same,GI50,UACC-257,> 100 µM (inactive)
same,GI50,PC-3,> 100 µM (inactive)
same,GI50,TK-10,> 100 µM (inactive)
same,GI50,RXF 393,> 100 µM (inactive)
same,GI50,SK-MEL-5,> 100 µM (inactive)
same,GI50,A549,> 100 µM (inactive)
same,GI50,Hs-578T,> 100 µM (inactive)
same,GI50,HL-60,> 100 µM (inactive)
same,GI50,SN12C,> 100 µM (inactive)
same,GI50,MCF7,> 100 µM (inactive)
same,GI50,NCI-H522,> 100 µM (inactive)
same,GI50,T47D,> 100 µM (inactive)
same,GI50,CCRF-CEM,> 100 µM (inactive)
same,GI50,BT-549,> 100 µM (inactive)
same,GI50,DU-145,> 100 µM (inactive)
same,GI50,HCT-15,> 100 µM
same,GI50,NCI-H460,> 100 µM (inactive)
same,GI50,U-251,> 100 µM (inactive)
same,GI50,SNB-19,> 100 µM (inactive)
same,GI50,SK-MEL-28,> 100 µM (inactive)
same,GI50,OVCAR-3,> 100 µM (inactive)
same,GI50,SF-268,> 100 µM (inactive)
same,GI50,SF-295,> 100 µM (inactive)
same,GI50,LOX IMVI,> 100 µM (inactive)
same,GI50,KM12,> 100 µM (inactive)
same,GI50,UACC-62,> 100 µM (inactive)
same,GI50,OVCAR-8,> 100 µM (inactive)
same,GI50,OVCAR-4,> 100 µM (inactive)
same,GI50,CAKI-1,> 100 µM (inactive)
same,GI50,HCT-116,> 100 µM (inactive)
same,GI50,OVCAR-5,> 100 µM (inactive)
same,GI50,COLO 205,> 100 µM (inactive)
same,GI50,M14,> 100 µM (inactive)
same,GI50,MDA-MB-231,> 100 µM (inactive)
same,GI50,HT-29,> 100 µM (inactive)
same,GI50,MDA-MB-435,> 100 µM (inactive)
same,GI50,K562,> 100 µM (inactive)
same,GI50,SK-MEL-2,> 100 µM (inactive)
same,GI50,SNB-75,95.7 µM (inactive)
same,GI50,EKVX,> 100 µM (inactive)
same,GI50,SR,> 100 µM (inactive)
same,GI50,UO-31,> 100 µM (inactive)
same,GI50,HOP-92,42.4 µM (inactive)
same,GI50,MOLT-4,> 100 µM (inactive)
same,GI50,Malme-3M,> 100 µM (inactive)
same,GI50,SF-539,> 100 µM (inactive)
same,GI50,MDA-N,> 100 µM (inactive)
same,GI50,786-0,> 73.5 µM (inactive)
same,GI50,NCI-H23,> 100 µM (inactive)

# Reference: ChEMBL document CHEMBL1201862, “PubChem BioAssay data set” (2004)
